From ChEMBL document CHEMBL3400041, “Pyridinic analog of the natural product (-)-spectaline as potential adjuvant for the treatment of central nervous system disorders” (Bioorg Med Chem Lett, 2015)
The source made the active and inactive calls. No cut-off for these calls is given here.

How the values were obtained:
Mus musculus [1] = test: Antischizophrenic activity in mouse assessed as inhibition of apomorphine-induced climbing behavior at 5 to 10 mg/kg, po; assay type: functional, organism-based
Mus musculus [2] = test: Antidepressant-like activity in mouse assessed as decrease in immobility time at 5 to 10 mg/kg, po by forced swimming test; assay type: functional, organism-based
Mus musculus [3] = test: Toxicity in mouse assessed as rearing behavior at 10 mg/kg, po by spontaneous locomotor activity test; assay type: organism-based; design: dose 10 mg/kg, route oral; details: in vivo
Mus musculus [4] = test: Effect on CNS activity in mouse assessed as reduction in number of groomings at 10 mg/kg, po by spontaneous locomotor activity test; assay type: functional, organism-based; design: dose 10 mg/kg; details: Central nervous system
Mus musculus [5] = test: Effect on CNS activity in mouse assessed as reduction in exploratory behaviour at 10 mg/kg, po by spontaneous locomotor activity test; assay type: functional, organism-based; design: dose 10 mg/kg; details: Central nervous system
Mus musculus [6] = test: Antidepressant-like activity in mouse assessed as decrease in immobility time at 10 mg/kg, po by forced swimming test; assay type: functional, organism-based; design: dose 10 mg/kg
Mus musculus [7] = test: Antischizophrenic activity in mouse assessed as inhibition of apomorphine-induced climbing behavior at 5 mg/kg, po; assay type: functional, organism-based; design: dose 5 mg/kg
Mus musculus [8] = test: Antischizophrenic activity in mouse assessed as inhibition of apomorphine-induced climbing behavior at 10 mg/kg, po; assay type: functional, organism-based; design: dose 10 mg/kg

| SMILES | inhibition (Mus musculus [1]) | Activity (Mus musculus [2]) | Activity (Mus musculus [3]) | Activity (Mus musculus [4]) | Activity (Mus musculus [5]) | Activity (Mus musculus [6]) | inhibition (Mus musculus [7]) | inhibition (Mus musculus [8]) |
| --- | --- | --- | --- | --- | --- | --- | --- | --- |
| CCOC(=O)CSc1ccc([N+](=O)[O-])c(SCC(=O)OCC)n1 | inactive | inactive | Non-toxic | Active | Active | – | – | – |
| CN(C)CCCN1c2ccccc2CCc2ccccc21 | – | – | – | – | – | Active | – | – |
| CN1CCN(C2=Nc3cc(Cl)ccc3Nc3ccccc32)CC1 | – | – | – | – | – | – | Active | – |
| CCOC(=O)CSc1nc(Cl)ccc1[N+](=O)[O-] | inactive | inactive | Non-toxic | Active | Active | – | – | – |
| CCOC(=O)CSc1ncccc1[N+](=O)[O-] | – | Active | Non-toxic | Active | Active | – | – | Active |
